# Source: US11266626B2, “Reduction of ER-MAM-localized APP-C99 and methods of treating alzheimer's disease” (THE TRUSTEES OF COLUMBIA UNIVERSITY IN THE CITY OF NEW YORK, priority 2015, dated 2022)
# “Also recorded” adds a separate entry of the source.
# Columns and labels:
# Assay type in all cases: cell-based, mouse
# [1] = system: WT MEFs and presenilin-mutant (PS-DKO) cells; test: Filipin staining of free cholesterol; conditions: WT MEFs treated with DAPT, then BACE1 inhibitor
# Experimental: Cells were washed in PBS and fixed in 3% paraformaldehyde at room temperature for 1 h. After washing in PBS three times, samples were incubated in 1.5 mg/ml glycine in 1×PBS to quench the paraformaldehyde and then incubated in 0.05 mg/ml of filipin in PBS/10% FBS for 2 h at room temperature. Free cholesterol signal was visualized in by microscopy and quantified by ImageJ.
# WT and PS-DKO cells = test: Mitochondrial content and biogenesis (VDAC, TOM20 western blot; PGC-1α qRT-PCR)
# Experimental: Total RNA was extracted from MEFs using TRIzol® Reagent (Invitrogen 15596-018) according to the manufacture's instructions, and was quantified by NanoDrop2000 (Thermo Scientific). […] of total RNA was used to obtain cDNA by RT-PCR using a High Capacity cDNA Reverse Transcription Kit (Applied Biosystems; PN 4368813, 4374966). Real-Time PCR was performed in triplicate in a StepOnePlus™ Real-Time PCR System (Applied Biosystems; 4376600). The expression of each gene under study was analyzed using specific predesigned TaqMan Probes (PGC-1α, ppargc1 Mm01208835_m1; aSMase, smpd1 Mm00488319_g1; nSMase, smpd3 Mm00491359_m1). The expression of each gene under study was analyzed using specific predesigned TaqMan Probes and normalizing against Gapdh expression (Applied Biosystems, 4352339E) as an internal standard.
# Total RNA was extracted from MEFs using TRIzol® Reagent (Invitrogen 15596-018) according to the manufacture's instructions, and was quantified by NanoDrop2000 (Thermo Scientific). […] The expression of each gene under study was analyzed using specific predesigned TaqMan Probes (PGC-1α, ppargcl Mm01208835_ml; aSMase, smpd1 Mm00488319_g1; nSMase, smpd3 Mm00491359_ml). The forward and reverse primers for COXI quantification were, respectively, ([…] (SEQ ID NO: 5); […] (SEQ ID NO: 6)). […]
# [2] = system: mitochondrial respiratory supercomplexes; test: Supercomplex analysis (blue-native gels, in-gel activity and western blot)
# Experimental: Analysis and quantification of mitochondrial respiratory complexes by western blot and enzymatic in-gel activity were carried out as previously reported (Acin-Perez et al., 2008)
# Analysis and quantification of mitochondrial respiratory complexes by Western blot and enzymatic in-gel activity were carried out as described (Acin-Perez et al, 2008).
# [3] = system: acid (aSMase) and neutral (nSMase) sphingomyelinases; test: Analysis of sphingomyelinase activity; conditions: PS-DKO MEFs; BI 100 nM; Aβ40:Aβ42 10:1, 6 ng/ml total
# Experimental: One hundred μg of protein were assayed in 100 mM of the appropriate buffer (Tris/glycine for pH 7.0-9.0 and sodium acetate for pH 4.0-5.0), 1.55 mM Triton X-100, 0.025% BSA, 1 mM MgCl2, and 400 μM bovine brain sphingomyelin spiked with 22000 dpm of [3H]-bovine sphingomyelin ([…]). Reactions were carried out in borosilicate glass culture tubes at 37° C., overnight, followed by quenching with 1.2 ml of ice-cold 10% trichloroacetic acid, incubation at 4° C. for 30 min, and centrifugation at 2000 rpm at 4° C. for 20 min. One ml of supernatant was transferred to clean tubes, 1 ml of ether was added, the mixture vortexed, and centrifuged at 2000 rpm for 5 min. Eight hundred μl of the bottom phase was transferred to scintillation vials, 5 ml of Scintiverse BD (Fisher Scientific, Fair Lawn, N.J.) was added, and samples were counted. […]
# Reactions were carried out in borosilicate glass culture tubes at 37° C., overnight, followed by quenching with 1.2 ml of ice-cold 10% trichloroacetic acid, incubation at 4° C. for 30 min, and centrifugation at 2000 rpm at 4° C. for 20 min. […] Eight hundred μl of the bottom phase was transferred to scintillation vials, 5 ml of Scintiverse BD (Fisher Scientific, Fair Lawn, N.J.) was added, and samples were counted. […]
SMILES,distribution of free cholesterol (filipin staining punctae) [1],"mitochondrial content / biogenesis (VDAC, TOM20, PGC-1α mRNA) (WT and PS-DKO cells)","activity of supercomplexes I+III+IV, I+III and III+IV (in-gel complex I and IV activity) ([2]; mitochondria from PS-DKO cells incubated with BI or myriocin)","assembly of respiratory supercomplexes (blue-native PAGE western blot) ([2]; mitochondria from PS-DKO cells, anti-complex I and III antibodies)",acid (aSMase) and neutral (nSMase) sphingomyelinase activity / sphingolipid turnover [3],"activity of supercomplexes I+III+IV, I+III and III+IV ([2]; mitochondria from DAPT-treated WT cells)"
"C[C@@H](NC(=O)c1cc(C(=O)N[C@@H](Cc2ccccc2)[C@H](O)CNC2CC2)cc(N(C)S(C)(=O)=O)c1)c1ccccc1 [BI, β-secretase inhibitor IV]",reverse it,without changes in mitochondria; also recorded: do not affect mitochondrial biogenesis,rescued,increases the assembly of supercomplexes I+III and I+III+IV,reduced significantly; also recorded: attenuation of sphingolipid turnover; also recorded: attenuation of sphingolipid synthesis and hydrolysis by sphingomyelinases,–
C[C@H](NC(=O)Cc1cc(F)cc(F)c1)C(=O)N[C@H](C(=O)OC(C)(C)C)c1ccccc1 [DAPT],this phenotype was recapitulated,do not affect mitochondrial biogenesis,–,–,–,decrease in the activity of supercomplexes
